# In patent US20050214375A1, “Process for producing block copolymer/drug composite” (priority 2002, published 2005):
# Structures can show the parent of a compound that is named as a salt. Where two headings read alike, the source gives them in different places.
# Tested on: Colon 26 adenocarcinoma cells
# Conditions: intravenous; for T/C (%) volume ratio of tumor against control groups 14 days after administration: CDF1 female mouse, Colon 26
# Procedure: Colon 26 adenocarcinoma cells were transplanted subcutaneously in the subaxillary region of each CDF1 female mouse. When the volume of the tumor reached around 100 mm^3, the block copolymer-drug composite obtained in Example 1 or doxorubicin hydrochloride was administered intravenously. […] The antitumor effect of the drug was judged from the number of mice showing disappearance of tumor (cured) 60 days after transplantation and the tumor proliferation inhibition ratio 14 days after administration.
smiles,measurement,setting,value
"COc1cccc2c1C(=O)c1c(O)c3c(c(O)c1C2=O)C[C@@](O)(C(=O)CO)C[C@@H]3O[C@H]1C[C@H](N)[C@H](O)[C@H](C)O1 [Doxorubicin hydrochloride, doxorubicin hydrochloride]",Cure/n: number of mice showing cure after 60 days observation period/number in one group,dose 19.2 mg/kg,2/10
same,Tox./n: number of mice died with toxicity/number in one group,dose 19.2 mg/kg,0/10
same,T/C (%) volume ratio of tumor against control groups 14 days after administration,dose 19.2 mg/kg,13.5%
same,Cure/n: number of mice showing cure after 60 days observation period/number in one group,dose 24.0 mg/kg,4/10
same,Tox./n: number of mice died with toxicity/number in one group,dose 24.0 mg/kg,0/10
same,T/C (%) volume ratio of tumor against control groups 14 days after administration,dose 24.0 mg/kg,6.4%
same,Cure/n: number of mice showing cure after 60 days observation period/number in one group,dose 30.0 mg/kg,3/10
same,Tox./n: number of mice died with toxicity/number in one group,dose 30.0 mg/kg,1/10
same,T/C (%) volume ratio of tumor against control groups 14 days after administration,dose 30.0 mg/kg,9.9%
